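Method: 48-hour compound exposure of cells in 96-well plates, five concentrations, linear interpolation of endpoints. GI50 is the concentration that inhibits growth by half.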 The source made the active and inactive calls. No stated cut-off is given here; in the data, active = GI50 up to about 1.1 µM and inactive = higher.
Columns and labels:
Test in all cases: NCI anticancer screen, dose series, 48 h
DLD-1 = system: DLD-1
HOP-62 = system: HOP-62
RPMI-8226 = system: RPMI-8226
DMS-273 = system: DMS-273
KM12 = system: KM12
SN12C = system: SN12C
HT-29 = system: HT-29
OVCAR-4 = system: OVCAR-4
RXF 393 = system: RXF 393
HOP-18 = system: HOP-18
SF-295 = system: SF-295
COLO 205 = system: COLO 205
HCT-116 = system: HCT-116
SW-620 = system: SW-620
HOP-92 = system: HOP-92
SK-MEL-5 = system: SK-MEL-5
SF-539 = system: SF-539
CCRF-CEM = system: CCRF-CEM
DMS-114 = system: DMS-114
MOLT-4 = system: MOLT-4
SNB-19 = system: SNB-19
SK-MEL-2 = system: SK-MEL-2
XF498 = system: XF498
NCI-H460 = system: NCI-H460
OVCAR-5 = system: OVCAR-5
OVCAR-8 = system: OVCAR-8
IGROV-1 = system: IGROV-1
EKVX = system: EKVX
Malme-3M = system: Malme-3M
UO-31 = system: UO-31
A549 = system: A549
K562 = system: K562
NCI-H23 = system: NCI-H23
MCF7 = system: MCF7
HCC 2998 = system: HCC 2998
OVCAR-3 = system: OVCAR-3
NCI-H226 = system: NCI-H226
SK-MEL-28 = system: SK-MEL-28
SF-268 = system: SF-268
SK-OV-3 = system: SK-OV-3
M19-MEL = system: M19-MEL
LOX IMVI = system: LOX IMVI
SNB-75 = system: SNB-75
CAKI-1 = system: CAKI-1
HL-60 = system: HL-60
NCI-H522 = system: NCI-H522
U-251 = system: U-251
A498 = system: A498
UACC-62 = system: UACC-62
UACC-257 = system: UACC-257
SNB-78 = system: SNB-78
LXFL 529 = system: LXFL 529
HCT-15 = system: HCT-15
ACHN = system: ACHN
SR = system: SR
KM-20L2 = system: KM-20L2
786-0 = system: 786-0
M14 = system: M14
TK-10 = system: TK-10

Compound: Cc1c2cc[n+](C)cc2c(C)c2c1[nH]c1ccccc12
- GI50 (DLD-1): 1.68 µM (inactive)
- GI50 (HOP-62): 0.441 µM (active)
- GI50 (RPMI-8226): 8.49 µM (inactive)
- GI50 (DMS-273): 1.5 µM (inactive)
- GI50 (KM12): 0.402 µM (active)
- GI50 (SN12C): 0.16 µM (active)
- GI50 (HT-29): 5.83 µM (inactive)
- GI50 (OVCAR-4): 2.77 µM (inactive)
- GI50 (RXF 393): 1.75 µM (inactive)
- GI50 (HOP-18): 2.82 µM (inactive)
- GI50 (SF-295): 0.233 µM (active)
- GI50 (COLO 205): 0.665 µM (active)
- GI50 (HCT-116): 4.22 µM (inactive)
- GI50 (SW-620): 1.17 µM (inactive)
- GI50 (HOP-92): 1.33 µM (inactive)
- GI50 (SK-MEL-5): 1.35 µM (inactive)
- GI50 (SF-539): 0.468 µM (active)
- GI50 (CCRF-CEM): 2.33 µM (inactive)
- GI50 (DMS-114): 0.275 µM (active)
- GI50 (MOLT-4): 0.912 µM (active)
- GI50 (SNB-19): 0.274 µM (active)
- GI50 (SK-MEL-2): 1.11 µM (active)
- GI50 (XF498): 0.548 µM (active)
- GI50 (NCI-H460): 2.06 µM (inactive)
- GI50 (OVCAR-5): 9.84 µM (inactive)
- GI50 (OVCAR-8): 0.399 µM (active)
- GI50 (IGROV-1): 3.44 µM (inactive)
- GI50 (EKVX): 0.718 µM (active)
- GI50 (Malme-3M): 0.855 µM (active)
- GI50 (UO-31): 15.8 µM (inactive)
- GI50 (A549): 0.225 µM (active)
- GI50 (K562): 2.79 µM (inactive)
- GI50 (NCI-H23): 0.714 µM (active)
- GI50 (MCF7): 3.08 µM (inactive)
- GI50 (HCC 2998): 3.49 µM (inactive)
- GI50 (OVCAR-3): 2.99 µM (inactive)
- GI50 (NCI-H226): 0.34 µM (active)
- GI50 (SK-MEL-28): 1.34 µM (inactive)
- GI50 (SF-268): 0.408 µM (active)
- GI50 (SK-OV-3): 6.67 µM (inactive)
- GI50 (M19-MEL): 0.984 µM (active)
- GI50 (LOX IMVI): 10.9 µM (inactive)
- GI50 (SNB-75): 0.193 µM (active)
- GI50 (CAKI-1): 4.39 µM (inactive)
- GI50 (HL-60): 9.62 µM (inactive)
- GI50 (NCI-H522): 0.869 µM (active)
- GI50 (U-251): 0.379 µM (active)
- GI50 (A498): 4.26 µM (inactive)
- GI50 (UACC-62): 4.5 µM (inactive)
- GI50 (UACC-257): 5.97 µM (inactive)

Compound: CCOC(=O)[C@H]1Nc2ccc(C)cc2C2c3ccccc3CC21 (stereo partly drawn)
- GI50 (SNB-78): > 100 µM (inactive)
- GI50 (DLD-1): > 100 µM (inactive)
- GI50 (HOP-62): > 100 µM (inactive)
- GI50 (RPMI-8226): > 100 µM (inactive)
- GI50 (DMS-273): > 100 µM (inactive)
- GI50 (KM12): > 100 µM (inactive)
- GI50 (SN12C): > 100 µM (inactive)
- GI50 (HT-29): > 100 µM (inactive)
- GI50 (OVCAR-4): > 100 µM (inactive)
- GI50 (RXF 393): 31.6 µM (inactive)
- GI50 (LXFL 529): > 100 µM (inactive)
- GI50 (HOP-18): > 100 µM (inactive)
- GI50 (SF-295): 74.1 µM (inactive)
- GI50 (COLO 205): > 100 µM (inactive)
- GI50 (HCT-15): > 100 µM
- GI50 (HCT-116): > 100 µM (inactive)
- GI50 (SW-620): > 100 µM (inactive)
- GI50 (SK-MEL-5): > 100 µM (inactive)
- GI50 (SF-539): > 100 µM (inactive)
- GI50 (ACHN): > 100 µM (inactive)
- GI50 (DMS-114): > 100 µM (inactive)
- GI50 (MOLT-4): > 100 µM (inactive)
- GI50 (SNB-19): > 100 µM (inactive)
- GI50 (SK-MEL-2): > 100 µM (inactive)
- GI50 (NCI-H460): > 100 µM (inactive)
- GI50 (OVCAR-5): > 100 µM (inactive)
- GI50 (SR): > 100 µM (inactive)
- GI50 (OVCAR-8): > 100 µM (inactive)
- GI50 (IGROV-1): > 100 µM (inactive)
- GI50 (EKVX): > 100 µM (inactive)
- GI50 (Malme-3M): > 100 µM (inactive)
- GI50 (UO-31): > 100 µM (inactive)
- GI50 (A549): > 100 µM (inactive)
- GI50 (K562): > 100 µM (inactive)
- GI50 (NCI-H23): > 100 µM (inactive)
- GI50 (HCC 2998): > 100 µM (inactive)
- GI50 (OVCAR-3): > 100 µM (inactive)
- GI50 (NCI-H226): > 100 µM (inactive)
- GI50 (SK-MEL-28): > 100 µM (inactive)
- GI50 (SF-268): > 100 µM (inactive)
- GI50 (KM-20L2): > 100 µM (inactive)
- GI50 (M19-MEL): > 100 µM (inactive)
- GI50 (LOX IMVI): > 100 µM (inactive)
- GI50 (SNB-75): 46.1 µM (inactive)
- GI50 (CAKI-1): > 100 µM (inactive)
- GI50 (NCI-H522): > 100 µM (inactive)
- GI50 (786-0): > 100 µM (inactive)
- GI50 (U-251): > 100 µM (inactive)
- GI50 (A498): 33.4 µM (inactive)
- GI50 (M14): > 100 µM (inactive)
- GI50 (TK-10): > 100 µM (inactive)
- GI50 (UACC-62): > 100 µM (inactive)
- GI50 (UACC-257): 30.6 µM (inactive)

Reference: ChEMBL document CHEMBL1201862, “PubChem BioAssay data set” (2004)
